Source: ChEMBL document CHEMBL1159386, “New bioactive coumarins from Kielmeyera albopunctata” (2003)
In brackets after ≈: the same amount, converted by molar mass.

Legend:
Assay type in all cases: functional
Trypanosoma cruzi [1] = assay: Antitrypanosomal activity against Trypanosoma cruzi trypomastigotes assessed as parasite lysis 7.5 ug/mL after 24 hrs
LNCaP = assay: Cytotoxicity against human LNCAP cells; details: read-out: ED50 (the source's name)
KB = assay: Cytotoxicity against human KB cells; details: read-out: ED50 (the source's name)
Lu1 = assay: Cytotoxicity against human Lu1 cells; details: read-out: ED50 (the source's name)
Col2 = assay: Cytotoxicity against human Col2 cells; details: read-out: ED50 (the source's name)
Trypanosoma cruzi [2] = assay: Antitrypanosomal activity against Trypanosoma cruzi trypomastigotes assessed as parasite lysis 500 ug/mL after 24 hrs
Trypanosoma cruzi [3] = assay: Antitrypanosomal activity against Trypanosoma cruzi trypomastigotes assessed as parasite lysis 125 ug/mL after 24 hrs

| SMILES | Activity (Trypanosoma cruzi [1]) [%] | EC50 (LNCaP) [µg/mL] | EC50 (KB) [µg/mL] | EC50 (Lu1) [µg/mL] | EC50 (Col2) [µg/mL] | Activity (Trypanosoma cruzi [2]) [%] | Activity (Trypanosoma cruzi [3]) [%] |
| --- | --- | --- | --- | --- | --- | --- | --- |
| CN(C)c1ccc(C(=C2C=CC(=[N+](C)C)C=C2)c2ccc(N(C)C)cc2)cc1.[Cl-] [GENTIAN VIOLET] | 50 | – | – | – | – | – | – |
| CCC(C)c1cc(=O)oc2c(C(=O)CC(C)CO)c(O)c3c(c12)OC(C(C)(C)O)C3 (stereo not given) | – | > 20 | > 20 | > 20 | > 20 | – | – |
| CC(C)=CCc1c(O)c(C(=O)CC(C)CO)c2oc(=O)cc(-c3ccccc3)c2c1O (stereo not given) | – | 15.9 (≈ 37.6 µM) | 17.7 (≈ 41.9 µM) | 19.8 (≈ 46.9 µM) | 17.4 (≈ 41.2 µM) | 98 | – |
| CCC(C)c1cc(=O)oc2c(C(=O)CC(C)CO)c(O)c(CC=C(C)C)c(O)c12 (stereo not given) | – | 14 (≈ 34.8 µM) | 15.8 (≈ 39.3 µM) | 19.4 (≈ 48.2 µM) | 13.1 (≈ 32.5 µM) | 100 | 80 |
| Cc1c2ccncc2c(C)c2c1[nH]c1ccccc12 [ELLIPTECINE] | – | 0.8 (≈ 3.25 µM) | 0.04 (≈ 0.162 µM) | 0.02 (≈ 0.0812 µM) | 0.3 (≈ 1.22 µM) | – | – |
